Experiment [1] addresses Copia transposon protease. The following applies: ref [17]; cited from earlier work. The source says: (§1) Despite the fact that out of the tested inhibitors only acet ...
Another experiment has as its system XMRV PR. The settings on record: ref [29]; cited from earlier work.
Description: as §1

Another experiment addresses T1, Ty1 PR-His6 (Saccharomyces cerevisiae, UniProt Q07793).
T1 construct: made in house; host or cells: E. coli BL21(DE3), pET11a Gag-PR-His6 (gift of J.F. Lawler); soluble fraction, Ni-chelate chromatography, autoprocessed
T1 sequence (Q07793 402-582 limits assumed): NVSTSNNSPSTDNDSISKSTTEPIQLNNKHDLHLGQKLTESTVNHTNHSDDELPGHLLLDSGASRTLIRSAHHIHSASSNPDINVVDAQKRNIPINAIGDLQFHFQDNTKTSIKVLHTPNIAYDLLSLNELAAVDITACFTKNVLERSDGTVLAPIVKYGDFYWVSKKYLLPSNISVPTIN
As to the kind of experiment: Inhibition study of Ty1 PR-His6. The settings on record: Ty1 PR-His6 (400–1600 nM), VPTIN*NVHTS 0.44 mM, inhibitor ≥100 nM final, DMSO, peptide buffer A, 2 h at 30°C. Format: biochemical. As for the experimental part:
Ty1 PR-His6 activity was measured in the presence of various HIV-1 protease inhibitors. […] To study effect of inhibitors on proteolytic activity, reaction mixtures contained 5 μl purified Ty1 PR-His6 (400–1600 nM), 10 μl peptide buffer A, 4.8 μl oligopeptide substrate (VPTIN*NVHTS, 0.44 mM), and 0.2 μl inhibitor. For screening, inhibitors were dissolved in DMSO to have ≥100 nM final concentration. DMSO solution containing no inhibitor was used as control. Reaction mixtures were incubated for 2 h at 30°C.

“Also recorded” adds a separate entry of the source.

For orientation: Ki means a dissociation constant, usually derived from enzyme kinetics or from competition with a known ligand.

As for pepstatin A, the Ki in experiment [1] is 15 nM. The “inhibition (in words)” value in the experiment with XMRV PR is “weak inhibitors”. Besides, the “inhibition of proteolytic activity (in words)” value against Ty1 PR-His6 is reported as “no inhibitory potential; also recorded: unable for the inhibition”.
